Test results taken from ChEMBL document CHEMBL4613241, “Disulfide Cleavage in a Dimeric Epipolythiodioxopiperazine Natural Product Diminishes Its Apoptosis-Inducing Effect but Enhances Autophagy in Tumor Cells” (2020).
Activity calls are given as the source filed them. The rule behind the calls is not given here.

Columns and labels:
HepG2 [1] = assay: Activation of AMPKalpha in human HepG2 cells assessed as ratio of phosphorylated ACCalpha at S79 residue to total ERK level at 0.5 uM incubated for 4 hrs in presence of CC by Western blot analysis (reference value: 1.1); type: cell-based
[2] = target: Serine/threonine-protein kinase mTOR (Homo sapiens) (UniProt P42345); assay: Inhibition of mTOR phosphorylation at S2448 residue in human HepG2 cells assessed as ratio of phosphorylated mTOR to total mTOR level at 0.05 uM after 4 hrs by Western blot analysis (reference value: 1); type: cell-based
T-24 = assay: Induction of apoptosis in human T24 cells assessed as increase in cleaved PARP1 level at 0.25 to 2 uM after 12 hrs by Western blot analysis; type: functional, cell-based
HepG2 [3] = assay: Induction of autophagy in human HepG2 cells assessed as ratio of LC3-2 level to total ERK level at 0.5 uM after 2 hrs in presence of HK2 siRNA by Western blot analysis (reference value: 3.1); type: functional
HepG2 [4] = assay: Induction of autophagy in human HepG2 cells assessed as ratio of LC3-2 level to total ERK level at 0.5 uM after 2 hrs in presence of 2-DG and CQ by Western blot analysis (reference value: 3.9); type: functional
HepG2 [5] = assay: Induction of autophagy in human HepG2 cells assessed as ratio of LC3-2 level to total ERK level at 0.5 uM after 2 hrs in presence of HK2 siRNA and CQ by Western blot analysis (reference value: 3.1); type: functional
HepG2 [6] = assay: Induction of autophagy in human HepG2 cells assessed as ratio of LC3-2 to total Erk1/2 protein level at 0.5 uM after 4 hrs in presence of CQ by Western blot analysis (reference value: 2.6); type: functional
HepG2 [7] = assay: Activation of AMPKalpha in human HepG2 cells assessed as ratio of phosphorylated AMPKalpha at T172 residue to total ERK level at 0.5 uM incubated for 4 hrs in presence of CC by Western blot analysis (reference value: 1); type: cell-based
HepG2 [8] = assay: Induction of autophagy in human HepG2 cells assessed as ratio of LC3-2 to total Erk1/2 protein level at 0.5 uM after 4 hrs by Western blot analysis (reference value: 1); type: functional
HepG2 [9] = assay: Induction of autophagy in human HepG2 cells assessed as ratio of LC3-2 level to total ERK level at 0.5 uM after 2 hrs in presence of PFK15 and CQ by Western blot analysis (reference value: 1.1); type: functional
HepG2 [10] = assay: Induction of apoptosis in human HepG2 cells assessed as increase in cleaved PARP level by measuring ratio of cleaved PARP to total PARP level at 1 uM after 12 hrs by Western blot analysis; type: functional
HepG2 [11] = assay: Induction of autophagy in human HepG2 cells assessed as ratio of LC3-2 level to total Erk1/2 protein level at 0.5 uM after 4 hrs in presence of CC and CQ by Western blot analysis (reference value: 2.4); type: functional
HeLa [12] = assay: Antiproliferative activity against human HeLa cells assessed as reduction in cell viability by MTS assay; type: functional, cell-based
HepG2 [13] = assay: Induction of autophagy in human HepG2 cells assessed as increase in formation of autophagosomes at 0.5 uM by TEM analysis; type: functional, cell-based; conditions: TDE = time-dependent effect
HepG2 [14] = assay: Induction of autophagy in human HepG2 cells assessed as inhibition of lactate generation at 0.5 uM up to 4 hrs; type: functional, cell-based
HepG2 [15] = assay: Induction of autophagy in human HepG2 cells assessed as accumulation of LC3-2 protein level at 0.5 uM after 4 hrs in presence of CQ by Western blot analysis analysis relative to CQ; type: functional
HepG2 [16] = assay: Antiproliferative activity against human HepG2 cells assessed as reduction in cell viability at 0.5 uM by MTS assay; type: functional, cell-based; conditions: TDE = time-dependent effect
HepG2 [17] = assay: Activation of AMPKalpha in human HepG2 cells assessed as ratio of ACCalpha phosphorylation at S79 residue to total ERK level at 0.5 uM incubated for 4 hrs by Western blot analysis (reference value: 1); type: cell-based
[18] = target: Serine/threonine-protein kinase mTOR (Homo sapiens) (UniProt P42345); assay: Inhibition of mTOR phosphorylation at S2448 residue in human HepG2 cells assessed as ratio of phosphorylated mTOR to total ERK level at 1 uM after 4 hrs by Western blot analysis (reference value: 1); type: cell-based
HepG2 [19] = assay: Induction of autophagy in human HepG2 cells assessed as ratio of PFKFB3 expression to total ERK level after 2 hrs by Western blot analysis (reference value: 1); type: functional
HeLa [20] = assay: Inhibition of colony formation in human HeLa at 0.1 uM after 2 weeks by trypan blue staining based assay relative to control; type: functional; conditions: 336 h
[21] = target: Serine/threonine-protein kinase mTOR (Homo sapiens) (UniProt P42345); assay: Inhibition of mTOR phosphorylation at S2448 residue in human HepG2 cells assessed as ratio of phosphorylated mTOR to total mTOR level at 0.5 uM after 4 hrs by Western blot analysis (reference value: 1); type: cell-based
ACHN [22] = assay: Antiproliferative activity against human ACHN cells assessed as reduction in cell viability at 0.5 uM measured up to 72 hrs by MTS assay; type: functional, cell-based
HepG2 [23] = assay: Induction of autophagy in human HepG2 cells ratio of LC3-2 level to total ERK level at 0.5 uM after 2 hrs in presence of CQ by Western blot analysis relative to CQ; type: functional
HepG2 [24] = assay: Induction of autophagy in human HepG2 cells assessed as ratio of HK2 expression to total ERK level after 2 hrs by Western blot analysis (reference value: 1); type: functional
HCT-116 [25] = assay: Inhibition of colony formation in human HCT116 at 0.1 uM after 2 weeks by trypan blue staining based assay relative to control; type: functional; conditions: HCT-116, 336 h
HepG2 [26] = assay: Induction of endoplasmic reticulum stress in human HepG2 cells assessed as increase in […] expression at 0.5 uM after 4 hrs by anti-ATF6 antibody staining based fluorescence microscopic method; type: functional, cell-based
HepG2 [27] = assay: Activation of AMPKalpha in human HepG2 cells assessed as ratio of phosphorylated AMPKalpha at T172 residue to total ERK level at 0.5 uM incubated for 4 hrs in presence of CC by Western blot analysis relative to CC; type: cell-based
HepG2 [28] = assay: Induction of autophagy in human HepG2 cells assessed as ratio of LC3-2 level to total ERK level at 0.5 uM after 2 hrs in presence of 2-DG by Western blot analysis (reference value: 1.1); type: functional
ACHN [29] = assay: Antiproliferative activity against human ACHN cells assessed as reduction in cell viability at 5 uM measured up to 72 hrs by MTS assay; type: functional, cell-based
HCT-116 [30] = assay: Inhibition of colony formation in human HCT116 at 1 to 5 uM after 2 weeks by trypan blue staining based assay; type: functional, cell-based
HepG2 [31] = assay: Induction of apoptosis in human HepG2 cells assessed as increase in cleaved PARP1 level at 5 uM after 12 hrs by Western blot analysis; type: functional, cell-based
HepG2 [32] = assay: Induction of autophagy in human HepG2 cells assessed as ratio of LC3-2 level to total Erk1/2 protein level at 0.5 uM after 4 hrs in presence of CC by Western blot analysis (reference value: 1.3); type: functional

Structure (SMILES) | Ratio (HepG2 [1]) | Ratio [2] | Ratio (HepG2 [3]) | Ratio (HepG2 [4]) | Ratio (HepG2 [5]) | Ratio (HepG2 [6]) | Ratio (HepG2 [7]) | Ratio (HepG2 [8]) | Ratio (HepG2 [9]) | Ratio (HepG2 [11]) | Activity (HeLa [12]) | fold change (FC) (HepG2 [15]) | Ratio (HepG2 [17]) | Ratio [18] | Ratio (HepG2 [19]) | Ratio [21] | fold change (FC) (HepG2 [23]) | Ratio (HepG2 [24]) | Activity (HepG2 [26]) | fold change (FC) (HepG2 [27]) | other results
CC[C@@]12SS[C@]3(C(=O)N1C)[C@@H](O)C1(C45c6ccccc6N[C@@H]4N4C(=O)[C@]6([C@@H](C)O)SS[C@]4(C(=O)N6C)[C@H]5O)c4ccccc4N[C@@H]1N3C2=O (stereo partly drawn) | 1 | 1.4 | 1.6 | 3.7 | 4.7 | 2.8 | 0.9 | 1.2 | 4.4 | 0.9 | Active | 2.3 | 1.4 | 1 | 0.7 | 1.8 | 2.1 | 0.8 | inactive | 0.8 | Activity (T-24): Active; Ratio (HepG2 [10]): 1; Activity (HepG2 [13]): Tde; inhibition (HepG2 [14]): Active; Activity (HepG2 [16]): Tde; inhibition at 0.1 µM (HeLa [20]): 100%; Activity (ACHN [22]): Active; inhibition at 0.1 µM (HCT-116 [25]): 100%
CCC1(SC)C(=O)N2[C@H]3N(C)c4ccccc4C3(C34c5ccccc5N(C)[C@@H]3N3C(=O)C(SC)([C@@H](C)O)N(C)C(=O)C3(SC)[C@H]4O)[C@H](O)C2(SC)C(=O)N1C (stereo partly drawn) | 1.1 | 1.8 | 1.1 | 3.7 | 7.2 | 3.1 | 0.9 | 1.1 | 3.9 | 0.9 | Active | 2.8 | 1.7 | 0.9 | 0.6 | 2.2 | 2.2 | 0.6 | inactive | 0.6 | Ratio (HepG2 [28]): 1; Activity (ACHN [29]): Active; inhibition (HCT-116 [30]): Active; Activity (HepG2 [31]): inactive; Ratio (HepG2 [32]): 0.7
